# Results reported in patent US20100285959A1, “HERBICIDAL MIXTURES” (priority 2006, published 2010).
# Tests used:
# [1] = system: wild mustard (SINAR); experiment: Test 22 growth chamber, postemergence; type: in vivo, Sinapis arvensis; conditions: 25 DAA; 2,4-D or MCPA alone 250 g a.i./ha
# Experimental: (§1) A test was conducted to evaluate the effects on winter barley (HORVW, Hordeum vulgare L.), winter wheat (TRZAW, Triticum aestivum L.), and several weed species of mixtures of Compound 2 with the commercial herbicides (2,4-dichlorophenoxy)acetic acid (2,4-D) and (4-chloro-2-methylphenoxy)acetic acid (MCPA), auxin mimics. […] Plants were treated postemergence at the 2-4 leaf growth stage, except KCHSC, SASKR and STEME which were in the 4-8 leaf growth stage. Each treatment was replicated one time. […] Plants were watered as needed. […] Results are from single replicates.
# [2] = system: winter wheat (TRZAW); experiment: Test 20 growth chamber, postemergence; type: in vivo, Triticum aestivum; conditions: 25 DAA; 2,4-D or MCPA alone 250 g a.i./ha
# Experimental: (§2) A test was conducted to evaluate the effects on winter barley (HORVW, Hordeum vulgare L.) and winter wheat (TRZAW, Triticum aestivum L.) of mixtures of Compound 2 with the commercial herbicides (2,4-dichlorophenoxy)acetic acid (2,4-D) and (4-chloro-2-methylphenoxy)acetic acid (MCPA), auxin mimics. […] Plants were treated postemergence at the 2-leaf growth stage, and each treatment was replicated a total of four times (three times in the loam/sand blend and one time in RediEarth). […] Plants were watered as needed. […] Results are the means of the four replicates.
# [3] = system: wild buckwheat (POLCO); experiment: Test 23 growth chamber, postemergence; type: in vivo, Polygonum convolvulus; conditions: 21 DAA; 2,4-D or MCPA alone 250 g a.i./ha
# Experimental: as §1, with “stage,” for “stage, except KCHSC, SASKR”, “each” for “STEME which were in the 4-8 leaf growth stage. Each”, “three times.” for “one time.”, “means of the three” for “from single”
# [4] = system: redroot pigweed (AMARE); experiment: Test 22 growth chamber, postemergence; type: in vivo, Amaranthus retroflexus; conditions: 25 DAA; 2,4-D or MCPA alone 250 g a.i./ha
# Experimental: as §1
# [5] = system: winter wheat (TRZAW); experiment: Test 23 growth chamber, postemergence; type: in vivo, Triticum aestivum; conditions: 21 DAA; 2,4-D or MCPA alone 250 g a.i./ha
# Experimental: as §1, with “stage,” for “stage, except KCHSC, SASKR”, “each” for “STEME which were in the 4-8 leaf growth stage. Each”, “three times.” for “one time.”, “means of the three” for “from single”
# [6] = system: common lambsquarters (CHEAL); experiment: Test 23 growth chamber, postemergence; type: in vivo, Chenopodium album; conditions: 21 DAA; 2,4-D or MCPA alone 250 g a.i./ha
# Experimental: as §1, with “stage,” for “stage, except KCHSC, SASKR”, “each” for “STEME which were in the 4-8 leaf growth stage. Each”, “three times.” for “one time.”, “means of the three” for “from single”
# [7] = system: galium (GALAP); experiment: Test 22 growth chamber, postemergence; type: in vivo, Galium aparine; conditions: 25 DAA; 2,4-D or MCPA alone 250 g a.i./ha
# Experimental: as §1
# [8] = system: galium (GALAP); experiment: Test 23 growth chamber, postemergence; type: in vivo, Galium aparine; conditions: 21 DAA; 2,4-D or MCPA alone 250 g a.i./ha
# Experimental: as §1, with “stage,” for “stage, except KCHSC, SASKR”, “each” for “STEME which were in the 4-8 leaf growth stage. Each”, “three times.” for “one time.”, “means of the three” for “from single”
# [9] = system: kochia (KCHSC); experiment: Test 22 growth chamber, postemergence; type: in vivo, Kochia scoparia; conditions: 25 DAA; 2,4-D or MCPA alone 250 g a.i./ha
# Experimental: as §1
# [10] = system: common chickweed (STEME); experiment: Test 23 growth chamber, postemergence; type: in vivo, Stellaria media; conditions: 21 DAA; 2,4-D or MCPA alone 250 g a.i./ha
# Experimental: as §1, with “stage,” for “stage, except KCHSC, SASKR”, “each” for “STEME which were in the 4-8 leaf growth stage. Each”, “three times.” for “one time.”, “means of the three” for “from single”
# [11] = system: Russian thistle (SASKR); experiment: Test 22 growth chamber, postemergence; type: in vivo, Salsola kali; conditions: 25 DAA; 2,4-D or MCPA alone 250 g a.i./ha
# Experimental: as §1
# [12] = system: wild mustard (SINAR); experiment: Test 23 growth chamber, postemergence; type: in vivo, Sinapis arvensis; conditions: 21 DAA; 2,4-D or MCPA alone 250 g a.i./ha
# Experimental: as §1, with “stage,” for “stage, except KCHSC, SASKR”, “each” for “STEME which were in the 4-8 leaf growth stage. Each”, “three times.” for “one time.”, “means of the three” for “from single”
# [13] = system: winter barley (HORVW); experiment: Test 20 growth chamber, postemergence; type: in vivo, Hordeum vulgare; conditions: 25 DAA; 2,4-D or MCPA alone 250 g a.i./ha
# Experimental: as §2
# [14] = system: common chickweed (STEME); experiment: Test 22 growth chamber, postemergence; type: in vivo, Stellaria media; conditions: 25 DAA; 2,4-D or MCPA alone 250 g a.i./ha
# Experimental: as §1
# [15] = system: winter barley (HORVW); experiment: Test 23 growth chamber, postemergence; type: in vivo, Hordeum vulgare; conditions: 21 DAA; 2,4-D or MCPA alone 250 g a.i./ha
# Experimental: as §1, with “stage,” for “stage, except KCHSC, SASKR”, “each” for “STEME which were in the 4-8 leaf growth stage. Each”, “three times.” for “one time.”, “means of the three” for “from single”
# [16] = system: field violet (VIOAR); experiment: Test 23 growth chamber, postemergence; type: in vivo, Viola arvensis; conditions: 21 DAA; 2,4-D or MCPA alone 250 g a.i./ha
# Experimental: as §1, with “stage,” for “stage, except KCHSC, SASKR”, “each” for “STEME which were in the 4-8 leaf growth stage. Each”, “three times.” for “one time.”, “means of the three” for “from single”
# [17] = system: kochia (KCHSC); experiment: Test 23 growth chamber, postemergence; type: in vivo, Kochia scoparia; conditions: 21 DAA; 2,4-D or MCPA alone 250 g a.i./ha
# Experimental: as §1, with “stage,” for “stage, except KCHSC, SASKR”, “each” for “STEME which were in the 4-8 leaf growth stage. Each”, “three times.” for “one time.”, “means of the three” for “from single”
# [18] = system: common lambsquarters (CHEAL); experiment: Test 22 growth chamber, postemergence; type: in vivo, Chenopodium album; conditions: 25 DAA; 2,4-D or MCPA alone 250 g a.i./ha
# Experimental: as §1
# [19] = system: winter wheat (TRZAW); experiment: Test 22 growth chamber, postemergence; type: in vivo, Triticum aestivum; conditions: 25 DAA; 2,4-D or MCPA alone 250 g a.i./ha
# Experimental: as §1
# [20] = system: winter barley (HORVW); experiment: Test 22 growth chamber, postemergence; type: in vivo, Hordeum vulgare; conditions: 25 DAA; 2,4-D or MCPA alone 250 g a.i./ha
# Experimental: as §1
# [21] = system: wild chamomile (MATCH); experiment: Test 23 growth chamber, postemergence; type: in vivo, Matricaria chamomilla; conditions: 21 DAA; 2,4-D or MCPA alone 250 g a.i./ha
# Experimental: as §1, with “stage,” for “stage, except KCHSC, SASKR”, “each” for “STEME which were in the 4-8 leaf growth stage. Each”, “three times.” for “one time.”, “means of the three” for “from single”
# [22] = system: wild buckwheat (POLCO); experiment: Test 22 growth chamber, postemergence; type: in vivo, Polygonum convolvulus; conditions: 25 DAA; 2,4-D or MCPA alone 250 g a.i./ha
# Experimental: as §1
# [23] = system: Russian thistle (SASKR); experiment: Test 23 growth chamber, postemergence; type: in vivo, Salsola kali; conditions: 21 DAA; 2,4-D or MCPA alone 250 g a.i./ha
# Experimental: as §1, with “stage,” for “stage, except KCHSC, SASKR”, “each” for “STEME which were in the 4-8 leaf growth stage. Each”, “three times.” for “one time.”, “means of the three” for “from single”
# [24] = system: redroot pigweed (AMARE); experiment: Test 23 growth chamber, postemergence; type: in vivo, Amaranthus retroflexus; conditions: 21 DAA; 2,4-D or MCPA alone 250 g a.i./ha
# Experimental: as §1, with “stage,” for “stage, except KCHSC, SASKR”, “each” for “STEME which were in the 4-8 leaf growth stage. Each”, “three times.” for “one time.”, “means of the three” for “from single”
# [25] = system: field poppy (PAPRH); experiment: Test 23 growth chamber, postemergence; type: in vivo, Papaver rhoeas; conditions: 21 DAA; 2,4-D or MCPA alone 250 g a.i./ha
# Experimental: as §1, with “stage,” for “stage, except KCHSC, SASKR”, “each” for “STEME which were in the 4-8 leaf growth stage. Each”, “three times.” for “one time.”, “means of the three” for “from single”
smiles,measurement,setting,value
Cc1cc(Cl)ccc1OCC(=O)O [MCPA],Postemergence SINAR Obs,[1],75
same,Postemergence TRZAW Obs,[2],18
same,Postemergence POLCO Obs,[3],52
same,Postemergence AMARE Obs,[4],65
same,Postemergence TRZAW Obs,[5],32
same,Postemergence CHEAL Obs,[6],70
same,Postemergence GALAP Obs,[7],50
same,Postemergence GALAP Obs,[8],43
same,Postemergence KCHSC Obs,[9],55
same,Postemergence STEME Obs,[10],55
same,Postemergence SASKR Obs,[11],45
same,Postemergence SINAR Obs,[12],65
same,Postemergence HORVW Obs,[13],33
same,Postemergence STEME Obs,[14],50
same,Postemergence HORVW Obs,[15],35
same,Postemergence VIOAR Obs,[16],60
same,Postemergence KCHSC Obs,[17],67
same,Postemergence CHEAL Obs,[18],65
same,Postemergence TRZAW Obs,[19],10
same,Postemergence HORVW Obs,[20],25
same,Postemergence MATCH Obs,[21],53
same,Postemergence POLCO Obs,[22],40
same,Postemergence SASKR Obs,[23],43
same,Postemergence AMARE Obs,[24],63
same,Postemergence PAPRH Obs,[25],57
